Experimental data reported in PMC10387993, “New pyrimidine-N-β-D-glucosides: synthesis, biological evaluation, and molecular docking investigations” (Turkish Journal of Chemistry, 2023).
Converted amounts (≈) assume the structure as drawn. Read-outs that look alike come from different tables or passages of the source.

Columns and labels:
Type in all cases: cell-based
normal FL cells = experiment: cells; conditions: FL normal cells, MTT; for IC50: read-out: IC50; for IC (total growth inhibition): read-out: TGI
Outline: (§1)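 Cells were seeded at about 1 × 10^4 per well, brought to 200 μL with medium, and assessed by MTT: 4 h with MTT reagent, formazan dissolved in DMSO with Sorenson's buffer, absorbance read at 560 nm (690 nm reference). IC50 derived from percent inhibition relative to DMSO.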

[1] = system: S. aureus MRSA ATCC 46300; experiment: Microdilution MIC assay; conditions: S. aureus MRSA ATCC 46300, 24 h at 35 °C
Outline: (§2)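 Compounds were serially diluted in microwells and inoculated with each strain. After 24 h incubation at 35 °C, growth was scored visually. The MIC was the lowest concentration showing no turbidity.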

[2] = system: A. actinomycetemcomitans ATCC 33384; experiment: Microdilution MIC assay; conditions: Aggregatibacter actinomycetemcomitans, ATCC33384; A. actinomycetemcomitans ATCC 33384, 24 h at 35 °C
Outline: as §2

E. coli ATCC 25922 = experiment: Microdilution MIC assay; conditions: Escherichia coli, ATCC25922; E. coli ATCC 25922, 24 h at 35 °C
Outline: as §2

[3] = system: E. faecalis VRE ATCC 19433; experiment: Microdilution MIC assay; conditions: Enterococcus faecalis; E. faecalis VRE ATCC 19433, 24 h at 35 °C
Outline: as §2

E. faecalis ATCC 29212 = experiment: Microdilution MIC assay; conditions: Enterococcus faecalis, ATCC29212, 24 h, E. faecalis ATCC 29212, 24 h at 35 °C; read-out: MIC
Outline: as §2

S. mutans ATCC 35668 = experiment: Microdilution MIC assay; conditions: S. mutans ATCC 35668, 24 h at 35 °C
Outline: as §2

S. gordonii NCTC 7870 = experiment: Microdilution MIC assay; conditions: Streptococcus gordonii, NCTC7870; S. gordonii NCTC 7870, 24 h at 35 °C
Outline: as §2

E. coli ESBL ATCC 35218 = experiment: Microdilution MIC assay; conditions: Escherichia coli, ATCC35218; E. coli ESBL ATCC 35218, 24 h at 35 °C
Outline: as §2

[4] = system: P. aeruginosa AGME ATCC 27853; experiment: Microdilution MIC assay; conditions: Pseudomonas aeruginosa, ATCC27853; P. aeruginosa AGME ATCC 27853, 24 h at 35 °C
Outline: as §2

S. aureus ATCC 25923 = experiment: Microdilution MIC assay; conditions: S. aureus ATCC 25923, 24 h at 35 °C
Outline: as §2

[5] = system: S. aureus MSSA ATCC 29213; experiment: Microdilution MIC assay; conditions: S. aureus MSSA ATCC 29213, 24 h at 35 °C
Outline: as §2

C6 (Rat brain glioma) = experiment: cells; conditions: Rattus norvegicus; for LC50 (concentration giving 50% net cell loss relative to time zero): read-out: LC50; for GI50 / IC50 / IC (total growth inhibition): C6, MTT; for IC50: read-out: IC50; for IC (total growth inhibition): read-out: TGI
Outline: as §1

A549 = experiment: cells; conditions: Homo sapiens; for LC50 (concentration causing 50% net cell loss): A549, read-out: LC50; for GI50 / IC50 / IC (total growth inhibition): A549, MTT; for IC50: read-out: IC50; for IC (total growth inhibition): read-out: TGI
Outline: as §1

Hep3B = experiment: cells; conditions: Homo sapiens; for GI50 / IC50 / IC (total growth inhibition): MTT; for IC50: read-out: IC50; for IC (total growth inhibition): read-out: TGI; for LC50 (concentration causing 50% net cell loss relative to time zero): read-out: LC50
Outline: as §1

HeLa = experiment: cells; conditions: Homo sapiens; for GI50 / IC50 / IC (total growth inhibition): MTT; for IC50: read-out: IC50; for IC (total growth inhibition): read-out: TGI; for LC50 (concentration causing 50% net cell loss): read-out: LC50
Outline: as §1

HT29 = experiment: cells; conditions: Homo sapiens; for LC50 (concentration giving 50% net cell loss relative to time zero): HT-29, read-out: LC50; for GI50 / IC50 / IC (total growth inhibition): HT-29, HT29, MTT; for IC50: read-out: IC50; for IC (total growth inhibition): read-out: TGI
Outline: as §1

MCF7 = experiment: cells; conditions: Homo sapiens; for LC50 (concentration causing 50% net cell loss relative to time zero): MCF7, read-out: LC50; for GI50 / IC50 / IC (total growth inhibition): MCF7, MTT; for IC50: read-out: IC50; for IC (total growth inhibition): read-out: TGI
Outline: as §1

[6] = Staphylococcus aureus, read-out: MIC
[7] = Streptococcus mutans, ATCC35668, 24 h, read-out: MIC
[8] = Staphylococcus aureus, ATCC25923, 24 h, read-out: MIC
[9] = Staphylococcus aureus, 24 h, read-out: MIC

## Cc1cccc(-c2cc(-c3ccncc3)nc(N[C@@H]3O[C@H](CO)[C@@H](O)[C@H](O)[C@H]3O)n2)c1 [Compound 6, N-[4-(3-methylphenyl)-6-pyridin-4-ylpyrimidin-2-yl]-β-D-glucopyranosylamine]
Normal FL cells
  GI50: 8.04 µg/mL (≈ 18.9 µM)
  IC50: > 500 µg/mL
  IC (total growth inhibition): > 500 µg/mL
[1]; [6]
  MIC: 250 µg/mL (≈ 589 µM)
[2]
  MIC: 500 µg/mL (≈ 1180 µM)
E. coli ATCC 25922
  MIC: > 1000 µg/mL
[3]
  MIC: 1000 µg/mL (≈ 2360 µM)
E. faecalis ATCC 29212
  MIC: 1000 µg/mL (≈ 2360 µM)
S. mutans ATCC 35668; [7]
  MIC: 500 µg/mL (≈ 1180 µM)
S. gordonii NCTC 7870
  MIC: 250 µg/mL (≈ 589 µM)
E. coli ESBL ATCC 35218
  MIC: > 1000 µg/mL
[4]
  MIC: > 1000 µg/mL
S. aureus ATCC 25923; [8]
  MIC: 500 µg/mL (≈ 1180 µM)
[5]
  MIC: 125 µg/mL (≈ 294 µM)
[5]; [9]
  MIC: 62.5 to 125 µg/mL (≈ 147 to 294 µM)
C6 (Rat brain glioma)
  LC50 (concentration giving 50% net cell loss relative to time zero): > 500 µg/mL
  GI50: > 500 µg/mL
  IC50: > 500 µg/mL
  IC (total growth inhibition): > 500 µg/mL
A549
  LC50 (concentration causing 50% net cell loss): > 500 µg/mL
  GI50: 192 µg/mL (≈ 453 µM)
  IC50: > 500 µg/mL
  IC (total growth inhibition): > 500 µg/mL
Hep3B
  GI50: 4.07 µg/mL (≈ 9.59 µM)
  IC50: > 500 µg/mL
  IC (total growth inhibition): > 500 µg/mL
  LC50 (concentration causing 50% net cell loss relative to time zero): > 500 µg/mL
HeLa
  GI50: > 500 µg/mL
  IC50: > 500 µg/mL
  IC (total growth inhibition): > 500 µg/mL
  LC50 (concentration causing 50% net cell loss): > 500 µg/mL
HT29
  LC50 (concentration giving 50% net cell loss relative to time zero): > 500 µg/mL
  GI50: 4.29 µg/mL (≈ 10.1 µM)
  IC50: > 500 µg/mL
  IC (total growth inhibition): > 500 µg/mL
MCF7
  LC50 (concentration causing 50% net cell loss relative to time zero): > 500 µg/mL
  GI50: 2.29 µg/mL (≈ 5.4 µM)
  IC50: > 500 µg/mL
  IC (total growth inhibition): > 500 µg/mL

## Cc1ccc(-c2cc(-c3ccccn3)nc(N[C@@H]3O[C@H](CO)[C@@H](O)[C@H](O)[C@H]3O)n2)cc1 [Compound 7, N-[4-(4-methylphenyl)-6-pyridin-2-ylpyrimidin-2-yl]-β-D-glucopyranosylamine]
Normal FL cells
  GI50: 6.1 µg/mL (≈ 14.4 µM)
  IC50: 255 µg/mL (≈ 600 µM)
  IC (total growth inhibition): 266 µg/mL
[1]; [6]
  MIC: 250 µg/mL (≈ 589 µM)
[2]
  MIC: 250 µg/mL (≈ 589 µM)
E. coli ATCC 25922
  MIC: > 1000 µg/mL
[3]
  MIC: 1000 µg/mL (≈ 2360 µM)
E. faecalis ATCC 29212
  MIC: 250 µg/mL (≈ 589 µM)
S. mutans ATCC 35668
  MIC: 125 µg/mL (≈ 294 µM)
S. mutans ATCC 35668; [7]
  MIC: 62.5 to 125 µg/mL (≈ 147 to 294 µM)
S. gordonii NCTC 7870
  MIC: 500 µg/mL (≈ 1180 µM)
E. coli ESBL ATCC 35218
  MIC: > 1000 µg/mL
[4]
  MIC: > 1000 µg/mL
S. aureus ATCC 25923; [8]
  MIC: 250 µg/mL (≈ 589 µM)
[5]; [9]
  MIC: 250 µg/mL (≈ 589 µM)
C6 (Rat brain glioma)
  LC50 (concentration giving 50% net cell loss relative to time zero): 88.3 µg/mL (≈ 208 µM)
  GI50: 8.15 µg/mL (≈ 19.2 µM)
  IC50: 29.3 µg/mL (≈ 69 µM)
  IC (total growth inhibition): 21.5 µg/mL
A549
  LC50 (concentration causing 50% net cell loss): > 500 µg/mL
  GI50: 125 µg/mL (≈ 295 µM)
  IC50: > 500 µg/mL
  IC (total growth inhibition): > 500 µg/mL
Hep3B
  GI50: 4.26 µg/mL (≈ 10 µM)
  IC50: 183 µg/mL (≈ 430 µM)
  IC (total growth inhibition): 194 µg/mL
  LC50 (concentration causing 50% net cell loss relative to time zero): > 500 µg/mL
HeLa
  GI50: 7.17 µg/mL (≈ 16.9 µM)
  IC50: 31.9 µg/mL (≈ 75 µM)
  IC (total growth inhibition): 21.6 µg/mL
  LC50 (concentration causing 50% net cell loss): 120 µg/mL (≈ 284 µM)
HT29
  LC50 (concentration giving 50% net cell loss relative to time zero): > 500 µg/mL
  GI50: 2.5 µg/mL (≈ 5.89 µM)
  IC50: 29.9 µg/mL (≈ 70.5 µM)
  IC (total growth inhibition): 49.2 µg/mL
MCF7
  LC50 (concentration causing 50% net cell loss relative to time zero): > 500 µg/mL
  GI50: 2.04 µg/mL (≈ 4.81 µM)
  IC50: > 500 µg/mL
  IC (total growth inhibition): > 500 µg/mL

## Cc1ccc(-c2cc(-c3cccnc3)nc(N[C@@H]3O[C@H](CO)[C@@H](O)[C@H](O)[C@H]3O)n2)cc1 [Compound 8, N-[4-(4-methylphenyl)-6-pyridin-3-ylpyrimidin-2-yl]-β-D-glucopyranosylamine]
Normal FL cells
  GI50: 5.64 µg/mL (≈ 13.3 µM)
  IC50: > 500 µg/mL
  IC (total growth inhibition): > 500 µg/mL
[1]
  MIC: <7.81 µg/mL
[1]; [6]
  MIC: < 7.81 µg/mL
[2]
  MIC: 500 µg/mL (≈ 1180 µM)
E. coli ATCC 25922
  MIC: 1000 µg/mL (≈ 2360 µM)
[3]
  MIC: 500 µg/mL (≈ 1180 µM)
E. faecalis ATCC 29212
  MIC: 1000 µg/mL (≈ 2360 µM)
S. mutans ATCC 35668; [7]
  MIC: 250 µg/mL (≈ 589 µM)
S. gordonii NCTC 7870
  MIC: 250 µg/mL (≈ 589 µM)
E. coli ESBL ATCC 35218
  MIC: > 1000 µg/mL
[4]
  MIC: > 1000 µg/mL
S. aureus ATCC 25923
  MIC: 15.62 µg/mL (≈ 36.8 µM)
S. aureus ATCC 25923; [8]
  MIC: 15.6 to 125 µg/mL (≈ 36.8 to 294 µM)
[5]
  MIC: 62.5 µg/mL (≈ 147 µM)
[5]; [9]
  MIC: 62.5 to 125 µg/mL (≈ 147 to 294 µM)
C6 (Rat brain glioma)
  LC50 (concentration giving 50% net cell loss relative to time zero): 225 µg/mL (≈ 530 µM)
  GI50: 8.71 µg/mL (≈ 20.5 µM)
  IC50: 49 µg/mL (≈ 115 µM)
  IC (total growth inhibition): 30.7 µg/mL
A549
  LC50 (concentration causing 50% net cell loss): > 500 µg/mL
  GI50: > 500 µg/mL
  IC50: > 500 µg/mL
  IC (total growth inhibition): > 500 µg/mL
Hep3B
  GI50: 6.38 µg/mL (≈ 15 µM)
  IC50: > 500 µg/mL
  IC (total growth inhibition): > 500 µg/mL
  LC50 (concentration causing 50% net cell loss relative to time zero): > 500 µg/mL
HeLa
  GI50: 14.1 µg/mL (≈ 33.2 µM)
  IC50: 81.3 µg/mL (≈ 191 µM)
  IC (total growth inhibition): 50.1 µg/mL
  LC50 (concentration causing 50% net cell loss): 325 µg/mL (≈ 766 µM)
HT29
  LC50 (concentration giving 50% net cell loss relative to time zero): > 500 µg/mL
  GI50: 4.43 µg/mL (≈ 10.4 µM)
  IC50: 42.5 µg/mL (≈ 100 µM)
  IC (total growth inhibition): 60 µg/mL
MCF7
  LC50 (concentration causing 50% net cell loss relative to time zero): > 500 µg/mL
  GI50: 1.7 µg/mL (≈ 4.01 µM)
  IC50: > 500 µg/mL
  IC (total growth inhibition): > 500 µg/mL
